Consider 18 molecules from ChEMBL document CHEMBL5137035 (Eur J Med Chem, 2022).

Data set [1] has as its target T1, Dihydroorotate dehydrogenase (quinone), mitochondrial (Homo sapiens, UniProt Q02127). As to the kind of experiment: Inhibition of human N-terminal SUMO-tagged DHODH expressed in Escherichia coli BL21(DE3) at 1 uM using dihydroorotate as substrate by DCIP based microplate reader analysis relative to control.
Data set [2] has as its target T1, Dihydroorotate dehydrogenase (quinone), mitochondrial. As to the kind of experiment: Inhibition of human N-terminal SUMO-tagged DHODH expressed in Escherichia coli BL21(DE3) using dihydroorotate substrate by DCIP based microplate reader analysis.
Data set [3] relates to Raji. As to the kind of experiment: Antiproliferative activity against human Raji cells assessed as cell growth inhibition measured after 96 hrs by MTT assay. In kind it is functional, cell-based. For orientation: Tetrazolium assays rely on reduction of a dye to a coloured formazan, in cell work by metabolically active cells.
Data set [4] addresses T1, Dihydroorotate dehydrogenase (quinone), mitochondrial. As to the kind of experiment: Inhibition of human N-terminal SUMO-tagged DHODH expressed in Escherichia coli BL21(DE3) at 100 nM using dihydroorotate as substrate by DCIP based microplate reader analysis relative to control.
A short description of data set [5]: Cytotoxicity against human HCoEpiC cells expressing human DHODH assessed as reduction in cell viability measured after 96 hrs by MTT assay. Type of data set: toxicity, cell-based.
Data set [6] relates to SUD4. As to the kind of experiment: Antiproliferative activity against human SU-DHL-4 cells expressing human DHODH assessed as reduction in cell viability measured after 96 hrs by MTT assay. In kind it is functional, cell-based. Conditions: SU-DHL-4, 96 h.
Data set [7] relates to U-937. As to the kind of experiment: Antiproliferative activity against human U-937 cells expressing human DHODH assessed as reduction in cell viability measured after 96 hrs by MTT assay. As to conditions: U-937, 96 h. Type of data set: functional, cell-based.
Data set [8] can be described thus: Acute toxicity in BALB/c mouse assessed as decrease in body weight at 300 mg/kg, po measured for 14 days. In kind it is organism-based. Conditions: in vivo, 336 h, time 14 day.
The nature of data set [9]: Cytotoxicity against human HL7702 cells expressing human DHODH assessed as reduction in cell viability measured after 96 hrs by MTT assay. As to conditions: HL7702 (L02) cells expressing human DHODH. Type of data set: toxicity, cell-based.
Data set [10] deals with KG-1. As to the kind of experiment: Antiproliferative activity against human KG-1 cells expressing human DHODH assessed as reduction in cell viability measured after 96 hrs by MTT assay. In kind it is functional, cell-based. Conditions: KG-1, 96 h.
In data set [11] the test system is Kasumi 1. As to the kind of experiment: Antiproliferative activity against human Kasumi 1 cells expressing human DHODH assessed as reduction in cell viability measured after 96 hrs by MTT assay. In kind it is functional, cell-based. As to conditions: Kasumi 1, 96 h.
The subject of data set [12] is HCT-116. As to the kind of experiment: Antiproliferative activity against human HCT-116 cells expressing human DHODH assessed as reduction in cell viability measured after 96 hrs by MTT assay. In kind it is functional, cell-based. As to conditions: HCT-116, 96 h.
For data set [13], the system named is A-375. As to the kind of experiment: Antiproliferative activity against human A375 cells expressing human DHODH assessed as reduction in cell viability measured after 96 hrs by MTT assay. In kind it is functional, cell-based. Conditions: A-375, 96 h.
Data set [14] in a line: Toxicity in BALB/c mouse assessed as animal death at 300 mg/kg, po measured for 14 days. In kind it is organism-based. Conditions: in vivo, 336 h, time 14 day.
Data set [15] can be described thus: Hepatotoxicity in BALB/c mouse assessed as change in blood ALP level at 300 mg/kg, po measured after 14 days by biochemical assay. In kind it is toxicity, organism-based. As to conditions: in vivo, 336 h, time 14 day.
A short description of data set [16]: Hepatotoxicity in BALB/c mouse assessed as change in blood ALT level at 300 mg/kg, po measured after 14 days by biochemical assay. Conditions: in vivo, 336 h, time 14 day. Type of data set: toxicity, organism-based.
Data set [17] in a line: Renal toxicity in BALB/c mouse assessed as change in blood uric acid level at 300 mg/kg, po measured after 14 days by biochemical assay. In kind it is organism-based. As to conditions: in vivo, 336 h, time 14 day.
Data set [18] can be described thus: Hepatotoxicity in BALB/c mouse assessed as change in blood AST level at 300 mg/kg, po measured after 14 days by biochemical assay. In kind it is toxicity, organism-based. As to conditions: in vivo, 336 h, time 14 day.
Data set [19] is described as follows: Acute toxicity in BALB/c mouse assessed as average body weight at 300 mg/kg, po measured after 14 days. In kind it is organism-based. Conditions: in vivo, 336 h, time 14 day.
Data set [20] can be described thus: Renal toxicity in BALB/c mouse assessed as change in blood uric acid level at 400 mg/kg, po measured after 14 days by biochemical assay. Type of data set: organism-based. As to conditions: in vivo, 336 h, time 14 day.
Data set [21] is described as follows: Toxicity in BALB/c mouse assessed as histopathological changes in kidney at 400 mg/kg, po measured after 14 days by H and E staining analysis. In kind it is organism-based. Conditions: in vivo, 336 h, time 14 day.
Data set [22] concerns HCT-116. As to the kind of experiment: Antitumor activity against human HCT-116 cells xenografted in nude mouse assessed as tumor growth inhibition at 30 mg/kg, po. Type of data set: functional. As to conditions: read-out: TGI. In general terms: Xenograft models place foreign cells or tissue in a host animal.
A short description of data set [23]: Toxicity in BALB/c mouse xenografted with HCT-116 cells assessed as animal death at 30 mg/kg, po and measured at 18 day. Type of data set: organism-based. As to conditions: in vivo, 432 h.
The nature of data set [24]: Acute toxicity in BALB/c mouse assessed as animal death at 400 mg/kg, po measured at 2 days. As to conditions: in vivo, 48 h, time 2 day. In kind it is organism-based.
Data set [25] is described as follows: Toxicity in BALB/c mouse assessed as histopathological changes in lungs at 400 mg/kg, po measured after 14 days by H and E staining analysis. Type of data set: organism-based. As to conditions: in vivo, 336 h, time 14 day.
A short description of data set [26]: Toxicity in BALB/c mouse assessed as histopathological changes in spleen at 400 mg/kg, po measured after 14 days by H and E staining analysis. Conditions: in vivo, 336 h, time 14 day. In kind it is organism-based.
A short description of data set [27]: Toxicity in BALB/c mouse assessed as adverse effect at 400 mg/kg, po measured for 14 days. In kind it is organism-based. Conditions: in vivo, 336 h, time 14 day.
Data set [28] can be described thus: Toxicity in BALB/c mouse xenografted with HCT-116 cells assessed as side effect at 30 mg/kg, po and measured at 18 day. In kind it is organism-based. As to conditions: in vivo, 432 h.
A short description of data set [29]: Hepatotoxicity in BALB/c mouse assessed as change in blood ALP level at 400 mg/kg, po measured after 14 days by biochemical assay. Type of data set: toxicity, organism-based. As to conditions: in vivo, 336 h, time 14 day.
Data set [30] in a line: Toxicity in BALB/c mouse assessed as histopathological changes in liver at 400 mg/kg, po measured after 14 days by H and E staining analysis. Type of data set: organism-based. As to conditions: in vivo, 336 h, time 14 day.
Data set [31] is described as follows: Toxicity in BALB/c mouse assessed as histopathological changes in heart at 400 mg/kg, po measured after 14 days by H and E staining analysis. Type of data set: organism-based. As to conditions: in vivo, 336 h, time 14 day.

T1 sequence (Q02127 whole entry): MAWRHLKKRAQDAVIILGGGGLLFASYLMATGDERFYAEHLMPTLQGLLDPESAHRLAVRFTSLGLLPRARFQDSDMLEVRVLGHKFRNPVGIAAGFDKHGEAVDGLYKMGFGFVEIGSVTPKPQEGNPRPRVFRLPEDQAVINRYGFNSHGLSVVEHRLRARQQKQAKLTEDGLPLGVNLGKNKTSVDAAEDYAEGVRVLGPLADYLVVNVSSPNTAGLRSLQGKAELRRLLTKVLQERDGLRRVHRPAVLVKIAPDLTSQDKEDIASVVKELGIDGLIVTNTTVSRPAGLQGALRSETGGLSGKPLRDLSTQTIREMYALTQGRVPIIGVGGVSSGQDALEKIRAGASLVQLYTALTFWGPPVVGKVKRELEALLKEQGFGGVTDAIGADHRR

As a reminder, the inhibition is how much of the control response was suppressed. A lower inhibition goes with a weak effect. One may read the IC50 as the concentration at which inhibition is half-maximal. Consider `COc1cccc(-c2cc(F)c(NC(=O)/C(C#N)=C(/C)O)cc2OC(C)C)c1`, for which the inhibition in [1] was 96.6%; in data set [4], 87.7%. In addition, the IC50 in data set [2] is 13.9 nM; in [3], 980 nM.
On the same counts, the results for `CCC(C)Oc1cc(NC(=O)/C(C#N)=C(/C)O)c(F)cc1-c1cccc2ccccc12` (stereo not drawn) are 99.7%, 95%, 9.8 nM and 215 nM.
`CCC(C)Oc1cc(NC(=O)/C(C#N)=C(/C)O)c(F)cc1-c1ccc2ccccc2c1` (stereo not drawn): the IC50 at 96 h in data set [5] worked out at 4710 nM; in data set [9] it was 6480 nM. For the same molecule, the results for the inhibition in data set [1] and in data set [4] were 99.8% and 95.6%, respectively. The IC50 in data set [2] turned out to be 6.6 nM; in data set [3], 18.8 nM; in data set [6], 160 nM; in [7], 200 nM; in data set [10] it was 620 nM; in [11], 130 nM. Further, the IC50 in [12] amounted to 150 nM; in data set [13] it was 270 nM. Moreover, the Activity result in [8] and in [14] was “Toxic” in each case.
For `CCC(C)Oc1cc(NC(=O)/C(C#N)=C(/C)O)c(F)cc1-c1cccc(OC)c1` (stereo not drawn), the inhibition in [1] turned out to be 99.2%; in [4] it was 91.2%. Moreover, the IC50 in data set [2] is 9.2 nM; in data set [3], 610 nM.
In the case of `CCC(C)Oc1cc(NC(=O)/C(C#N)=C(/C)O)c(F)cc1-c1cccc(C(F)(F)F)c1` (stereo not drawn), the IC50 at 96 h in data set [5] and in [9] was greater than 10000 nM in each case. Further, the inhibition in data set [1] was 99.3%; in [4], 92.4%. Also, the Activity entry is recorded as “Toxic” in data set [15]; “Toxic” in data set [16]; “Toxic” in data set [17]; “Toxic” in [18]; 17.3 g in data set [19]. Also, the IC50 in [2] turned out to be 7.9 nM; in data set [3] it was 45.5 nM; in data set [6] it was 300 nM; in [7] it was 560 nM; in [10], 990 nM; in [11], 500 nM. The IC50 was found to be 270 nM in data set [12] and 500 nM in [13].
For the molecule `CCC(C)Oc1cc(NC(=O)/C(C#N)=C(/C)O)c(F)cc1-c1ccc2c(c1)OCO2` (stereo not drawn), the inhibition in [1] amounted to 96.9%; in data set [4], 83.1%. The molecule also displayed a half-inhibitory concentration (IC50) in data set [2] of 28.8 nM.
For `CCC(C)Oc1cc(NC(=O)/C(C#N)=C(/C)O)c(F)cc1-c1ccc(Cl)cc1` (stereo not drawn) the same measures were 95.4%, 68.5% and 33.3 nM.
With `CCC(C)Oc1cc(NC(=O)/C(C#N)=C(/C)O)c(F)cc1-c1ccc(OC)cc1` (stereo not drawn), the inhibition in data set [1] is 94.7%; in data set [4], 72.1%. Inhibition in data set [2] was half-maximal at 39.8 nM (IC50).
For `CCOc1cc(NC(=O)/C(C#N)=C(/C)O)c(F)cc1-c1cccc(OC)c1` the same measures were 93.1%, 65.2% and 41.4 nM.
For `C/C(O)=C(\C#N)C(=O)Nc1cc(OC(C)C)c(-c2cccc(C(F)(F)F)c2)cc1F`, the Activity entry in data set [20] is “Toxic”; in data set [21] it was “Non-Toxic”; in [23] it was “Non-Toxic”; in [24], “Toxic”; in data set [25] it was “Non-Toxic”; in [26], “Non-Toxic”. For the same molecule, the Activity entry in [27] is listed as “Non-Toxic”; in data set [28], “Non-Toxic”; in data set [29], “Toxic”; in [30] it was “Non-Toxic”; in [31], “Non-Toxic”. Further, the results for the IC50 in data set [2], in [3] and in data set [12] were 10.2 nM, 70.1 nM and 300 nM, respectively. Also, in [22], the inhibition in vivo at 30 mg/kg came to 54.4%.
Consider `CCC(C)Oc1cc(NC(=O)/C(C#N)=C(/C)O)c(F)cc1-c1ccc(F)c(F)c1` (stereo not drawn), for which the results for the inhibition in data set [1] and in data set [4] were 97.5% and 80.1%, respectively. Further, half-maximal inhibition in [2] (IC50) required 30.4 nM.
Consider `CCCC(C)Oc1cc(NC(=O)/C(C#N)=C(/C)O)c(F)cc1-c1cccc(OC)c1` (stereo not drawn), for which the inhibition in data set [1] stood at 98.4%; in data set [4] it was 86.5%. The IC50 in [2] came to 14.4 nM.
Consider `COc1cccc(-c2cc(F)c(Nc3ncccc3C(=O)O)c(F)c2)c1` [ASLAN-003], for which, in [3], the IC50 is 270 nM.
As for `CCC(C)Oc1cc(NC(=O)/C(C#N)=C(/C)O)c(F)cc1-c1cccc(OC(F)(F)F)c1` (stereo not drawn), the inhibition in [1] is 99.2%; in data set [4], 92.4%. The IC50 worked out at 10.9 nM in [2] and 130 nM in data set [3].
Regarding `CCC(C)Oc1cc(NC(=O)/C(C#N)=C(/C)O)c(F)cc1-c1ccccc1Cl` (stereo not drawn), the values for the inhibition in data set [1] and in data set [4] were 98.8% and 86.3%, respectively. The IC50 in data set [2] amounted to 21.8 nM.
`CCC(C)Oc1cc(NC(=O)/C(C#N)=C(/C)O)c(F)cc1-c1ccccc1` (stereo not drawn): the inhibition in data set [1] is 96.9%; in data set [4], 80.4%. This molecule registered an IC50 in data set [2] of 28.9 nM.
For `COc1cccc(-c2cc(F)c(NC(=O)/C(C#N)=C(/C)O)cc2OC)c1`, the inhibition in data set [1] worked out at 91.8%; in [4], 57.7%. This molecule yielded an IC50 in data set [2] of 52.1 nM.
As for `CCC(C)Oc1cc(NC(=O)/C(C#N)=C(/C)O)c(F)cc1-c1cc(F)cc(F)c1` (stereo not drawn), the inhibition was 98.8% in [1] and 85.1% in data set [4]. In addition, the IC50 in [2] is 22.6 nM.
